Laboratory results taken from patent US20100008868A1, “SUSTAINED REMISSION OF ATOPIC DERMATITIS” (priority 2007, published 2010).

Experiments:
atopic dermatitis [1] = assay: Topical treatment of atopic dermatitis lesions in individual subjects (case reports, Examples 11-15); type: in vivo, human; details: topical application to atopic dermatitis lesion
Text: The product was applied on an irregular basis with the longest exposure time at night.
A subject with an atopic dermatitis lesion on the palm of the right hand is presently being treated with the invention containing betamethasone and clemastine hydrogen fumarate.

atopic dermatitis [2] = details: cited from earlier work
atopic dermatitis [3] = details: 0.2%, 0.6% and 1.0% creams; 260 patients; cited from earlier work
[4] = 15, 45, and 120 mg/kg/day orally, 39 weeks; cited from earlier work
[5] = 192 adults with moderate to severe AD

Molecule	outcome of the lesion (atopic dermatitis [1])	days on which corticosteroid medication for flares was used (atopic dermatitis [2]; 24-week treatment period)	median time to first flare (atopic dermatitis [2]; [5])	patients who did not experience a flare (atopic dermatitis [2]; [5])	efficacy vs vehicle (atopic dermatitis [3])	finding associated with oral dosing [4]
betamethasone propionate	no improvement	–	–	–	–	–
CC[C@@H]1/C=C(\C)C[C@H](C)C[C@H](OC)[C@H]2O[C@@](O)(C(=O)C(=O)N3CCCC[C@H]3C(=O)O[C@H](/C(C)=C/[C@@H]3CC[C@H](Cl)[C@H](OC)C3)[C@H](C)[C@@H](O)CC1=O)[C@H](C)C[C@@H]2OC [pimecrolimus]	–	14.2 % of the days	144 days	44.8%	significantly more effective than vehicle	immunosuppression-related lymphoproliferative disorders
